Marks after values point to notes of the source that are not given here.
Assays:
[1] = test system: transplanted tumor of mouse H22 liver cancer; assay: Inhibition of transplanted tumor of mouse H22 liver cancer
Method: The H22 cell strains cryopreserved in liquid nitrogen were resuscitated in Kunming mice. After 3 generations, the ascites of Kunming mice were taken and placed in a 50 ml centrifuge tube in which 10 ml of 0.9% normal saline was added, and then centrifuging was performed at 1000 rpm for 5 min at room temperature, and the obtained supernatant was removed. Then 10 ml of 0.9% normal saline was added to the tube to blow and mix well, and then the mixture was diluted to 5×10^6 live cells/ml with normal saline after counting. The tube was stored in ice water, and 75% ethanol was used to disinfect the skin under the right armpits of the mice. Each Kunming mouse was soon inoculated subcutaneously with 0.2 ml of the cells at the armpit of the right forelimb.
In the H22 liver cancer model, the mice inoculated with the tumor were randomly divided into groups with 10 mice in each group on the next day of inoculation. […] Each group was continuously administered intragastrically for 7 days with a dose of 20 ml/kg.
(§1) The tumor-bearing mice were weighed and sacrificed the next day after the last administration. The subcutaneous tumors were dissected and weighed. The average tumor weight of each group is calculated, and the tumor inhibition rate is calculated. Tumor inhibition rate=(1−T/C)×100%
(§2) T: average tumor weight of the drug-administered group; C: average tumor weight of the blank control group.

[2] = test system: transplanted tumor of human hepatocarcinoma HepG-2 cells; assay: Human hepatocarcinoma in nude mice model; conditions: HepG-2 nude mice; 30 mg/kg i.g. 30 d
Method: (§3) Then cell concentration was adjusted to 1×10^7/ml with matrigel, and then each nude mouse was inoculated subcutaneously with 0.2 ml of cells at its right armpit and recorded as the first day of inoculation. […] Each group was continuously administered intragastrically for 30 days with a dose of 20 ml/kg. The mice were sacrificed the next day after drug withdrawal and the indicators were tested. The long diameter and short diameter of the tumor, and the body weight of each mouse were recorded every 3 days from drug administration to nude mouse sacrifice.
(§4) The body weight of the nude mice and the long diameter (a) and short diameter (b) of the transplanted tumor were measured every 3 days, and the tumor volume (v), relative tumor volume (RTV) and relative tumor proliferation rate (T/C) are calculated respectively according to the following formulas, wherein V=a×b^2/2; RTV=V/V0 (V0 is the tumor volume before administration, V is the tumor volume before sacrifice), and T/C (%)=treatment group RTV/model control group RTV×100%.
(§5) Each mouse was weighed and sacrificed. After the tumor was completely stripped off from the body of the mouse, the non-tumor tissues such as blood stains and fat were removed to weigh the tumor and calculate the tumor growth inhibition rate. The average tumor weight of each group of mice is used as an indicator of efficacy. Tumor growth inhibition rate (%)=(1−the average tumor weight of the treatment group/the average tumor weight of the model group)×100%.

[3] = test system: transplanted tumor of mouse Lewis lung cancer; assay: Inhibition of transplanted tumor of mouse Lewis lung cancer
Method: Lewis lung cancer cells were cultured in a RPMI 1640 culture medium containing 10% fetal bovine serum at 37° C. in a 5% CO2 incubator. The cells in the logarithmic growth phase were subjected to trypsinization with 0.25% trypsin, then the cells were collected to be centrifugated to remove the obtained supernatant, then were washed twice with sterile normal saline. […] The Lewis cells were adjusted to 1×10^7/mL in concentration and stored in ice water. 75% ethanol was used to disinfect the skin under the right armpits of the mice, and each C57BL/6 mouse was soon inoculated subcutaneously with 0.2 ml of the cells at its right armpit.
In the Lewis lung cancer model, the mice inoculated with the tumor were randomly divided into groups with 10 mice in each group on the next day of inoculation. […] Each group was continuously administered intragastrically for 15 days with a dose of 20 ml/kg.
as §1, §2

[4] = test system: transplanted tumor of human large cell lung cancer H460 cells; assay: Human large cell lung cancer (H460) in nude mice model; conditions: 30 mg/kg i.g. 30 d
Method: as §3, §4, §5

[5] = test system: transplanted tumor of human esophageal cancer TE-1 cells; assay: Human esophageal cancer in nude mice model; conditions: 30 mg/kg
Method: as §3, §4, §5

[6] = test system: transplanted tumor of human lymphoma U937 cells; assay: Human lymphoma in nude mice model; conditions: 30 mg/kg i.g. 30 d
Method: as §3, with “U937 cells in a logarithmic growth phase were taken and subjected to a trypan blue exclusion experiment showing that the cell viability was more than 95%, then the cells were subjected to trypsinization, centrifugation, and supernatant removal. Then” for “Then”
as §4, §5

[7] = test system: transplanted tumor of human breast cancer MCF-7 cells; assay: Human breast cancer (MCF-7) in nude mice model; conditions: MCF-7 nude mice; 30 mg/kg i.g. 30 d
Method: as §3, §4, §5

[8] = 26 mg/kg, positive drug group, by tumor weight
[9] = 26 mg/kg, positive drug group, d1

With `O=P1(N(CCCl)CCCl)NCCCO1` (stereo not drawn) [Cyclophosphamide] the “tumour” value ([1]; 26 mg/kg, positive drug group) was 0.53 ± 0.24 g, the “Inhibition Rate (%)” value [1, 8] was 47.25% and the “Body Weight (g)(d1)” value [1, 9] was 23.50 ± 1.90 g. The “Body Weight (g) (d7)” value ([1]; 26 mg/kg, positive drug group, d7) was 25.13 ± 2.69 g, the “weight compared with the normal control group” value ([1]; H22 liver cancer mice, cyclophosphamide 26 mg/kg) was “slight decrease in weight” and the tumor inhibition rate ([1]; Kunming mouse H22 liver cancer, cyclophosphamide 26 mg/kg i.g. 7 days) was 47.25%. The “Body Weight (g)(d1)” value [2] was 22.67 ± 1.54 g, the “Body Weight (g)(d30)” value [2] was 21.52 ± 1.99 g and the “Inhibition Rate (%)” value [2] was 63.48%. For the same compound, the “Relative Tumor Proliferation Rate(T/C)” value [2] was 32.55%, the “Relative Tumor Volume (RTV)” value [2] was 4.27 ± 0.26 and the “Tumor Volume (mm3) (d1)” value [2] was 146.12 ± 2.30 mm3. The “Tumor Volume (mm3) (d30)” value [2] was 623.67 ± 28.44 mm3, the “Tumor Weight” value [2] was 0.46 ± 0.07 g and the “Tumor Weight” value ([3]; 26 mg/kg, positive drug group, 15 days) was 0.59 ± 0.13 g. The “Inhibition Rate (%)” value [3, 8] was 49.14%, the “Body Weight (g)(d1)” value [3, 9] was 25.60 ± 2.06 g and the “Body Weight (g) (d15)” value ([3]; 26 mg/kg, positive drug group, d15) was 20.14 ± 3.26 g. For the same compound, the tumor inhibition rate ([3]; mouse Lewis lung cancer, cyclophosphamide 30 mg/kg i.g. 15 days) was 49.14%, the “Body Weight (g)(d1)” value [4] was 20.32 ± 0.87 g and the “Body Weight (g)(d30)” value [4] was 19.25 ± 0.83 g. The “Inhibition Rate (%)” value [4] was 68.49%, the “Relative Tumor Proliferation Rate(T/C)” value [4] was 36.37% and the “Relative Tumor Volume (RTV)” value [4] was 7.66 ± 1.26. For the same compound, the “Tumor Volume (mm3) (d1)” value [4] was 130.82 ± 2.38 mm3, the “Tumor Volume (mm3) (d30)” value [4] was 1002.08 ± 48.82 mm3 and the “Tumor Weight” value [4] was 0.61 ± 0.13 g. For the same compound, the “Relative Tumor Proliferation Rate(T/C)” value [5] was 52.01%, the “Relative Tumor Volume (RTV)” value [5] was 9.05 ± 2.58 and the “Tumor Weight” value [5] was 0.66 ± 0.28 g. The “Inhibition Rate (%)” value ([5]; by tumor weight) was 72.12%, the “Body Weight (g)(d1)” value ([5]; d1) was 22.78 ± 1.35 g and the “Tumor Volume (mm3) (d1)” value ([5]; d1) was 92.02 ± 7.06 mm3. The “Body Weight (g)(d30)” value ([5]; d30) was 21.32 ± 1.63 g, the “Tumor Volume (mm3) (d30)” value ([5]; d30) was 830.30 ± 34.31 mm3 and the “Body Weight (g)(d1)” value [6] was 19.79 ± 0.86 g. For the same compound, the “Body Weight (g)(d30)” value [6] was 18.85 ± 0.62 g, the “Inhibition Rate (%)” value [6] was 78.40% and the “Relative Tumor Proliferation Rate(T/C)” value [6] was 34.30%. For the same compound, the “Relative Tumor Volume (RTV)” value [6] was 6.37 ± 0.94, the “Tumor Volume (mm^3) (d1)” value [6] was 139.58 ± 11.25 mm^3 and the “Tumor Volume (mm^3) (d30)” value [6] was 889.72 ± 59.73*** mm^3. The “Tumor Weight” value [6] was 0.38 ± 0.16 g, the “Body Weight (g)(d1)” value [7] was 21.93 ± 0.89 g and the “Body Weight (g)(d30)” value [7] was 19.79 ± 1.47 g. The “Inhibition Rate (%)” value [7] was 62.3%, the “Relative Tumor Proliferation Rate(T/C)” value [7] was 30.58% and the “Relative Tumor Volume (RTV)” value [7] was 5.00 ± 1.27. For the same compound, the “Tumor Volume (mm3) (d1)” value [7] was 127.68 ± 14.89 mm3, the “Tumor Volume (mm3) (d30)” value [7] was 638.62 ± 123.11 mm3 and the “Tumor Weight” value [7] was 0.72 ± 0.21 g.

— patent US11077126B2 (priority 2017, dated 2021)
